The values below come from patent US7045532B2 (Millennium Pharmaceuticals, Inc., priority 1999, dated 2006).

In one assay the target is T1, Carboxypeptidase A (Bos taurus, UniProt P00730).
T1 sequence (P00730 111-419): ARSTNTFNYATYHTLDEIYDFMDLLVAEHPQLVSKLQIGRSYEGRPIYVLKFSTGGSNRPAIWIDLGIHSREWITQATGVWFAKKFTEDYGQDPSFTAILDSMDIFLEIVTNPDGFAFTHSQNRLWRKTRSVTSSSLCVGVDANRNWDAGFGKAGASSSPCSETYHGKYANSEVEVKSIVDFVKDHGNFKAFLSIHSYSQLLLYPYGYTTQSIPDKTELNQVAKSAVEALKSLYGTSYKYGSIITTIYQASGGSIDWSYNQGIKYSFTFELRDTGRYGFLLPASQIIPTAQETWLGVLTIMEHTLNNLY
Nature of the assay: Carboxypeptidase A activity assay. It is filed as biochemical. The note with it: Ki class, compounds tested in 5% DMSO. The method, then: Carboxypeptidase A activity was measured using a literature assay (Holmquist and Riordan, “Carboxypeptidase A,” Methods of Enzymatic Analysis (1984) p. 44–60). The assay was adapted to a 96 well format by adjusting to a 300 μL assay volume and using ultra-thin bottom plates (Costar/Corning) read at 328 nm. The assay was stopped using EDTA.
The activity of the test compounds was investigated using the procedure outlined above. The compounds were tested in 5% DMSO. Enzyme activity was measured at 12 compound concentrations. The Ki was calculated by using Ki=Kiapp/(1+[S]/Km).
To determine whether a test compound is capable of modulating carboxypeptidase A's ability to cleave a substrate the method described in Holmquist and Riordan, Carboxypeptidase A, p44–60, Peptidase and Their Inhibitors in Method of Enzymatic Analysis (1984), may be used.
The assay may be adapted to a 96 well format by adjusting to a 300 μl assay volume and using ultrathin bottom plates (Costar/Coming) read at 328 nm with a final assay volume of 300 μl. The assay may be stopped using EDTA.

In the next assay the target is T2, ACE (Sigma, A2580) (Sus scrofa, UniProt F1RRW5).
T2 construct: ACE from porcine kidney; purchased Sigma A2580; host or cells: porcine kidney
T2 sequence (F1RRW5 34-1309): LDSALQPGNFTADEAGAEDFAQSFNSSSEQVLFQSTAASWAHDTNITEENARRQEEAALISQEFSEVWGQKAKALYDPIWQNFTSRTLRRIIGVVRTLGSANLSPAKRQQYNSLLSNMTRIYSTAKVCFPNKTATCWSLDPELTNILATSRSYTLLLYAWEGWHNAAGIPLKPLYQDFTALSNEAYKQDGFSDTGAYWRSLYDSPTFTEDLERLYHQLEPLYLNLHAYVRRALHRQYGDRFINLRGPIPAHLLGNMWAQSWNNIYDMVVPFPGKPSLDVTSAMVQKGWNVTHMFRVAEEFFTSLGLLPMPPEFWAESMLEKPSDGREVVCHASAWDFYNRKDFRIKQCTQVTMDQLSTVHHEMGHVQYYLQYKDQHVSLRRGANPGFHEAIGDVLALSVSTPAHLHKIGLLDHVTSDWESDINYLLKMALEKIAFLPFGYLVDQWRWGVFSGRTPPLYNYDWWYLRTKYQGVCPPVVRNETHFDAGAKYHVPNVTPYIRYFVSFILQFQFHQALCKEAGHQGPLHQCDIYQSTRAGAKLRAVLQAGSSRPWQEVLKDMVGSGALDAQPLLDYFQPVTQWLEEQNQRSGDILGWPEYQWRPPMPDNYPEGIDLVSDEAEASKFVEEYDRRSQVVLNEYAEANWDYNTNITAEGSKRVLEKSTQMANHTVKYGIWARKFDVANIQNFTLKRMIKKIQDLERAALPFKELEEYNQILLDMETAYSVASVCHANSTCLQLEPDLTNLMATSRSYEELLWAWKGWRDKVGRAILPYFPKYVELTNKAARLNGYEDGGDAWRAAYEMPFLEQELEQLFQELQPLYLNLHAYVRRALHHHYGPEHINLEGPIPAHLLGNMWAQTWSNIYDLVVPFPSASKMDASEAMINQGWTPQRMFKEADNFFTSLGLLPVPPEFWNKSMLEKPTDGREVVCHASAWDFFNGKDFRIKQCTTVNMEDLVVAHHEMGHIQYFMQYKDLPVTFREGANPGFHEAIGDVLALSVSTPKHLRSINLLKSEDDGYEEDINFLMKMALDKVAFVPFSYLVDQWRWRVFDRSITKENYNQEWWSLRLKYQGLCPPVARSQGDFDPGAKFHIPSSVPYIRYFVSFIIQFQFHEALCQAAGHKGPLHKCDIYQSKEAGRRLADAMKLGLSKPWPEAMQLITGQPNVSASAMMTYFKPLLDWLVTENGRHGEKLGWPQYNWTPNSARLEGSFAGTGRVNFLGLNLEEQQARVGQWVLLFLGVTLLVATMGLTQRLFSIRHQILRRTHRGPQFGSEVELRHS
Nature of the assay: ACE enzymatic activity assay. The assay is classed as biochemical, porcine. The note with it: Ki class, compounds tested in 5% DMSO. As to the method: ACE (Sigma, A2580) enzymatic activity was assayed in microtiter plates using the following protocol. ACE assay buffer was made from 50 mM HEPES (Sigma), 300 mM sodium chloride (Sigma), and 0.01% Brij-35 (Pierce Chemical Co) at pH 7.5.
Reactions were mixed and incubated at 25° C. Enzymatic cleavage of the substrate is marked by a fluorescence change (excitation 330 nm, emission 415 nm).
The activity of the test compounds was investigated using the procedure outlined above. The compounds were tested in 5% DMSO. Enzyme activity was measured at 12 compound concentrations. […]. […]

A further assay has as its target T3, ACE-2 (Homo sapiens, UniProt Q9BYF1).
T3 construct: a stop codon inserted after the serine immediately preceding the transmembrane domain; made in house; host or cells: CHO K1 cells (transient transfection, purified from conditioned medium)
Nature of the assay: ACE-2 Competitive Substrate Assay (ACS Assay). The assay is classed as biochemical.

The mark [1] stands for this setting: Ki class, compounds tested in 5% DMSO, 12 concentrations, read-out: Human ACE-2 Activity.
Where [2] appears, read: Ki class, compounds tested in 5% DMSO, 12 compound concentrations, Ki=Kiapp/(1+[S]/Km), read-out: Human ACE-2 Activity.
The mark [3] stands for this setting: Table 3, very good ACE-2 inhibiting compounds, species not given, read-out: ACE-2 Activity, Ki.

Each structure is given as a SMILES string. pKi: −log10 of the molar value. Where two headings read alike, the source gives them in different places.

T3 sequence (Q9BYF1 18-740 limits assumed): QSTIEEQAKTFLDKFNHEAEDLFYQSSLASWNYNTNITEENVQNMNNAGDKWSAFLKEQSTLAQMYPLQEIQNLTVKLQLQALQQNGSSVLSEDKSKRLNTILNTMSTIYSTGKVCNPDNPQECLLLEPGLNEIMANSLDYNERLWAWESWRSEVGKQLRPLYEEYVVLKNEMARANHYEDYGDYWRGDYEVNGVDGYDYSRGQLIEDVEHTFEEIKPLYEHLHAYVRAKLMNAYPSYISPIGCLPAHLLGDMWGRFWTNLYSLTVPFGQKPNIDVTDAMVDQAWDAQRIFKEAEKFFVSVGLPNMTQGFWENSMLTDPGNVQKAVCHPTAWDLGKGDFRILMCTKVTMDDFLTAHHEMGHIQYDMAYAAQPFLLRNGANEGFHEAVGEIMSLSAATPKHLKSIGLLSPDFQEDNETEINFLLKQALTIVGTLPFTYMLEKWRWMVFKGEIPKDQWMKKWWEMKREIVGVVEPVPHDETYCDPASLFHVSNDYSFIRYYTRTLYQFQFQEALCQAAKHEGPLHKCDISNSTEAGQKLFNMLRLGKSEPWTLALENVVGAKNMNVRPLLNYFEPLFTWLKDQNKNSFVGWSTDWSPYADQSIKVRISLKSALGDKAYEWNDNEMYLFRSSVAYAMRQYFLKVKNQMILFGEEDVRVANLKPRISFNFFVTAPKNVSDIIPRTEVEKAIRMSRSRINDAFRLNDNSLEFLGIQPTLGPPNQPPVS

With `CCC(N[C@@H](Cc1c[nH]cn1)C(=O)O)C(=O)O` (stereo partly shown), the pKi is less than 4.30 at Carboxypeptidase A (12 concentrations); less than 4.30 on ACE (Sigma, A2580) (12 concentrations); less than 6.30 on ACE-2 (setting [1]).
Regarding `CC(=O)N(C(CCc1ccccc1)C(=O)O)[C@@H](CC(C)C)C(=O)O` (single isomer, unassigned) [AT, 2-[Acetyl-(1-carboxy-3-phenyl-propyl)-amino]-4-methyl-pentanoic acid], the pKi at Carboxypeptidase A (12 concentrations) is less than 4.30; on ACE (Sigma, A2580) (12 concentrations) it was less than 4.30; at ACE-2 (setting [1]) it was less than 6.30.
Turning to `CCCCC(CC(=O)O)N[C@@H](Cc1c[nH]cn1)C(=O)O` (single isomer, unassigned) [ES, 3-[1-Carboxy-2-(1H-imidazol-4-yl)-ethylamino]heptanoic acid], the pKi on Carboxypeptidase A (12 concentrations) was less than 4.30; at ACE (Sigma, A2580) (12 concentrations) it was less than 4.30; at ACE-2 (setting [1]), less than 6.30.
Consider `CC(C)CC(N[C@@H](Cc1cncn1COCc1ccccc1)C(N)=O)C(=O)O` (single isomer, unassigned) [FB, 2-[2-(3-Benzyloxymethyl-3H-imidazol-4-yl)-1-carbamoyl-ethylamino]-4-methyl-pentanoic acid], for which the pKi is less than 4.30 at Carboxypeptidase A (12 concentrations); less than 4.30 at ACE (Sigma, A2580) (12 concentrations); less than 6.30 at ACE-2 (setting [1]).
With `CC(C)CC(N[C@@H](CNc1ccccc1)C(=O)O)C(=O)O` (single isomer, unassigned) [FI, 2-(1-Carboxy-2-phenylamino-ethylamino)-4-methyl-pentanoic acid], the pKi on Carboxypeptidase A (12 concentrations) was less than 4.30; at ACE (Sigma, A2580) (12 concentrations), less than 4.30; at ACE-2 (setting [1]) it was less than 6.30.
Take `CC(C)CC(N[C@@H](Cc1cncn1COCc1ccccc1)C(=O)NCCc1ccccc1)C(=O)O` (single isomer, unassigned) [FM, 2-[2-(3-Benzyloxymethyl-3H-imidazol-4-yl)-1-phenethylcarbamoyl-ethylamino]-4-methyl-pentanoic acid]: the pKi at Carboxypeptidase A (12 concentrations) was less than 4.30; on ACE (Sigma, A2580) (12 concentrations), less than 4.30; on ACE-2 (setting [1]) it was less than 6.30.
Turning to `CC(C)CC(N[C@@H](Cc1cncn1Cc1ccc(C(=O)O)cc1)C(=O)O)C(=O)O` (single isomer, unassigned) [GO, 4-[5-[2-Carboxy-2-(1-carboxy-3-methyl-butylamino)-ethyl]-imidazol-1-ylmethyl]-benzoic acid], the pKi at Carboxypeptidase A (12 concentrations) is less than 4.30; on ACE (Sigma, A2580) (12 concentrations), less than 4.30; on ACE-2 (setting [1]) it was less than 6.30.
Turning to `CC(C)CC(N[C@@H](Cc1cncn1Cc1ccc(C#N)cc1)C(=O)O)C(=O)O` (single isomer, unassigned) [HA, 2-[1-Carboxy-2-[3-(4-cyano-benzyl)-3H-imidazol-4-yl]-ethylamino)4-methyl-pentanoic acid], the pKi at Carboxypeptidase A (12 compound concentrations) is 4.30 to 5.00; on ACE (Sigma, A2580) (12 compound concentrations), 4.30 to 5.00; at ACE-2 (setting [2]), more than 7.00; at ACE-2 (setting [3]), 7.00 to 7.30.
As to `CC(C)CC(N[C@@H](Cc1cncn1Cc1ccc(C(C)(C)C)cc1)C(=O)O)C(=O)O` (single isomer, unassigned) [HY, 2-[2-[3-(4-tert-Butyl-benzyl)-3H-imidazol-4-yl]-1-carboxy-ethylamino)-4-methyl-pentanoic acid], the pKi on Carboxypeptidase A (12 compound concentrations) is more than 5.00; on ACE (Sigma, A2580) (12 compound concentrations), more than 5.00; on ACE-2 (setting [2]), more than 7.00; at ACE-2 (setting [3]), 7.00 to 7.30.
Take `O=C(O)C(CCc1ccccc1)N1CCC[C@H]1C(=O)O` (stereo in doubt) [AC, 1-(1-Carboxy-3-phenyl-propyl)-pyrrolidine-2-carboxylic acid]: the pKi on Carboxypeptidase A (12 concentrations) is less than 4.30; at ACE (Sigma, A2580) (12 concentrations), less than 4.30; at ACE-2 (setting [1]), less than 6.30.
As for `CC(C)CC(N[C@@H](Cc1c[nH]cn1)C(=O)O)C(=O)O` (stereo in doubt) [AE, 2-[1-Carboxy-2-(1H-imidazol-4-yl)-ethylamino]4-methyl-pentanoic acid], the pKi on Carboxypeptidase A (12 concentrations) was less than 4.30; at ACE (Sigma, A2580) (12 concentrations) it was less than 4.30; on ACE-2 (setting [1]), less than 6.30.
On to `CCCC(N[C@@H](Cc1c[nH]cn1)C(=O)O)C(=O)O` (stereo in doubt) [AF, 2-[1-Carboxy-2-(1H-imidazol-4-yl)-ethylamino]pentanoic acid], for which the pKi is less than 4.30 at Carboxypeptidase A (12 concentrations); less than 4.30 at ACE (Sigma, A2580) (12 concentrations); less than 6.30 at ACE-2 (setting [1]).
`CCCC(N[C@@H](CCSC)C(=O)O)C(=O)O` (stereo in doubt) [AO, 2-(1-Carboxy-3-methylsulfanyl-propylamino)-pentanoic acid]: the pKi at Carboxypeptidase A (12 concentrations) is less than 4.30; on ACE (Sigma, A2580) (12 concentrations), less than 4.30; at ACE-2 (setting [1]), less than 6.30.
In the case of `CCCC(N[C@@H](CC(C)C)C(=O)O)C(=O)O` (stereo in doubt) [AQ, 2-(1-Carboxy-butylamino)-4-methyl-pentanoic acid], the pKi on Carboxypeptidase A (12 concentrations) was less than 4.30; on ACE (Sigma, A2580) (12 concentrations), less than 4.30; at ACE-2 (setting [1]), less than 6.30.
Consider `CC(C)C[C@H](NC(C(=O)O)c1ccc(C(F)(F)F)cc1)C(=O)O` (stereo in doubt) [AR, 2-{[Carboxy-(4-trifluoromethyl-phenyl)-methyl]-amino}-4-methyl-pentanoic acid], for which the pKi on Carboxypeptidase A (12 concentrations) was less than 4.30; on ACE (Sigma, A2580) (12 concentrations) it was less than 4.30; on ACE-2 (setting [1]), less than 6.30.
In the case of `O=C(O)C(CCc1ccccc1)N[C@@H](Cc1c[nH]cn1)C(=O)O` (stereo partly shown) [ER, 2-[1-Carboxy-2-(1H-imidazol-4-yl)-ethylamino]4-phenyl-butync acid], the pKi at Carboxypeptidase A (12 concentrations) is less than 4.30; at ACE (Sigma, A2580) (12 concentrations) it was less than 4.30.
With `CC(C)CC(N[C@@H](Cc1cn(Cc2ccc(Cl)cc2)cn1)C(=O)O)C(=O)O` (stereo partly shown) [EU, 2-[1-Carboxy-2-[1-(4-chloro-benzyl)-1H-imidazol-4-yl]-ethylamino)4-methyl-pentanoic acid], the pKi on Carboxypeptidase A (12 concentrations) was 4.30 to 5.00; at ACE (Sigma, A2580) (12 concentrations) it was less than 4.30.
As to `CC(C)CC(NC(Cc1cncn1Cc1cccc([N+](=O)[O-])c1)C(=O)O)C(=O)O` (stereo not shown) [GA], the pKi at Carboxypeptidase A (12 concentrations) is 4.30 to 5.00; at ACE (Sigma, A2580) (12 concentrations), less than 4.30.
`O=C(O)C(Cc1ccccc1)NC(Cc1cncn1Cc1ccccc1)C(=O)O` (stereo not shown) [GE, 3-(3-Benzyl-3H-imidazol-4-yl)-2-(1-carboxy-2-phenyl-ethylamino)-propronic acid]: the pKi is less than 4.30 on Carboxypeptidase A (12 concentrations) and less than 4.30 at ACE (Sigma, A2580) (12 concentrations).
